Laboratory results taken from patent US20130195798A1, “COMBINATION THERAPY FOR TREATMENT OF VIRAL INFECTIONS” (The Chancellors, Masters and Scholars of the University of …, priority 2006, published 2013).

Legend:
ncp BVDV strain Pe515 = assay: Real time RT-PCR of secreted viral RNA in supernatants of persistently infected MDBK cells (Example 3); format: cell-based, bovine viral diarrhea virus; conditions: iminosugar added to IFN/RBV from the beginning of treatment
Protocol: Madin-Darby bovine kidney cells (MDBK) MDBK cells were seeded at 1×10^6 cells/35 mm dish, infected with non-cytopathic (ncp) BVDV strain Pe515 (National Animal Disease Laboratory) at a MOI of 0.1, and passaged into fresh RPMI 1640 medium containing 10% (v/v) Foetal calf serum using a 1:8 dilution every three days. After achieving a stable infection IFN (1000 IU) and RBV (1 μM) (Sigma-Aldrich) were added to the cells; this passage was denoted passage 0 (P0). Simultaneously, a non-drug treated positive control sample and mock-infected (M.I.) negative controls cultured in the presence and absence of IFN and RBV (1000 IU and 1 μM, respectively) were prepared. Cells continued to be passaged every 3 days into fresh medium containing IFN and RBV. […] At each passage the combined supernatants of cultured cells from duplicate wells were harvested (to account for biological variation), levels of secreted viral RNA measured (by real time RT-PCR using technical duplicates) and the infectivity of the supernatant determined using an immunofluorescence (IF) based infectivity assay.
At each passage, a 500 μl aliquot of each supernatant harvested from the cultured cells was concentrated by ultrafiltration (10 kDa molecular weight cut off Centricon filter; Millipore, Mass., USA) to 140 μl. […] Real time RT-PCR was carried out using the Qiagen Quantitect RT-PCR kit. […]

cytopathic BVDV = conditions: higher NB-DNJ concentrations in combination with IFN; cited from earlier work

## CCCCN1C[C@H](O)[C@@H](O)[C@H](O)[C@H]1CO [NB-DNJ, N-butyl deoxynojirimycin]
Ncp BVDV strain Pe515
  additional effect on decrease of viral RNA levels (synergy): no synergy was observed
Cytopathic BVDV
  antiviral effect of the combination: greater than additive antiviral effect
